Patent US12662451B2, “Chemical compounds and uses thereof” (GLAXOSMITHKLINE INTELLECTUAL PROPERTY (NO.4) LIMITED, priority 2023, dated 2026)
pIC50: −log10 of the molar value. Counter-ions that a name gives are not always drawn. Like-named read-outs stand apart in the source and are kept apart here.

Biological target: T1, recombinant full-length WRN protein (1-1432) (Homo sapiens, UniProt Q14191)
T1 construct: recombinant full-length WRN protein (1-1432)
Test: WRN unwinding activity, fluorogenic 384-well assay (Example A)
Type: biochemical
Settings: Table 2; for IC50: WRN unwinding activity, 4 hr, read-out: 4 hr UNW pIC50 (converted)
In short: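 200 pM enzyme (2× stock) preincubated with compound 4 h at ambient temperature, then 200 μM ATP and 12 nM quenched TAMRA-labelled dsDNA (2× stocks) added for 60 min; EDTA-quenched. Buffer 25 mM Tris pH 8.0, 5 mM NaCl, 2 mM MgCl2. Fluorescence at 525/598 nm; pIC50 from four-parameter fit.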

T1 sequence (Q14191 whole entry): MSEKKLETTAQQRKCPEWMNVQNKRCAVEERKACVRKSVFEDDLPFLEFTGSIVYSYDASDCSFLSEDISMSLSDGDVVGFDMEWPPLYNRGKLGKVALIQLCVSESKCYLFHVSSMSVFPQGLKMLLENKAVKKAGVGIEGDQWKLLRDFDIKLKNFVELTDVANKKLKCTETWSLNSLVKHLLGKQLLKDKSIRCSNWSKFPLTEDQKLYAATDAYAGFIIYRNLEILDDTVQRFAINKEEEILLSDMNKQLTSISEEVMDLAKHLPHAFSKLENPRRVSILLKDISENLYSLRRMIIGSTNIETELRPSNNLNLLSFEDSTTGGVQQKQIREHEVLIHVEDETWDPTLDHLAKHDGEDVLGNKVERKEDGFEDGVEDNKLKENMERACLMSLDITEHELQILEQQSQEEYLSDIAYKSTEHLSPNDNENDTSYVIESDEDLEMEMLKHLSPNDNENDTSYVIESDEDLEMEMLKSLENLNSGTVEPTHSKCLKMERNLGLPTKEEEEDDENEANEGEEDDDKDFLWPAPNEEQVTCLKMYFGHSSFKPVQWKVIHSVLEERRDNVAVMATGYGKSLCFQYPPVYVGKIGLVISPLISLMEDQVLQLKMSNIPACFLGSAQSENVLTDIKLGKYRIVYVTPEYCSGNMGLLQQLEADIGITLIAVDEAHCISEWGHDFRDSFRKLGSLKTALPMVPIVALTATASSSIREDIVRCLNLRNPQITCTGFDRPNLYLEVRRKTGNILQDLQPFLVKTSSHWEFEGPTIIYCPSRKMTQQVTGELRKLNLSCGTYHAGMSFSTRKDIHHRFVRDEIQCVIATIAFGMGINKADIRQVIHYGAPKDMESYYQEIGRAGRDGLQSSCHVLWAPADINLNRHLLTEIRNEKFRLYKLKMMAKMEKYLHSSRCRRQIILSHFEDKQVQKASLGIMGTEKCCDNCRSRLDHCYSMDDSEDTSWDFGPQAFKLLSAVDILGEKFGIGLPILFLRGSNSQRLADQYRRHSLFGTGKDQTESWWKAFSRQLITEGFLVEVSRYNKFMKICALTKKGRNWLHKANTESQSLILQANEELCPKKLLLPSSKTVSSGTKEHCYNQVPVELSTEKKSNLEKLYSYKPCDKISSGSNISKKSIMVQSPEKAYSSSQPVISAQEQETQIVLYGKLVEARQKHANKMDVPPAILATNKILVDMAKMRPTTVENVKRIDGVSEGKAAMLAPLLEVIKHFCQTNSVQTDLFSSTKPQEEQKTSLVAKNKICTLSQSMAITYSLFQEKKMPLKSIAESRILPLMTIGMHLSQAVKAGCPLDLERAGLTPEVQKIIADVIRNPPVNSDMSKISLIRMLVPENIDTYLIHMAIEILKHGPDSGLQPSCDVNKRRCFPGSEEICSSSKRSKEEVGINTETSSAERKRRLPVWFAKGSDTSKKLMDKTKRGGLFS

| SMILES | IC50 [nM] | pIC50 (4 hr UNW pIC50, WRN unwinding activity) |
| --- | --- | --- |
| Cc1nc2cc(S(=O)(=O)N(C)c3ccc([C@@H]4C[C@@H](N)C[C@H](C(=O)Nc5ccc(C(F)(F)F)cc5F)[C@H]4C(=O)O)cc3)ccc2n1C (stereo in doubt) [Example 299, rel-(1R,2R,4S,6S)-4-amino-2-((2-fluoro-4-(trifluoromethyl)phenyl)carbamoyl)-6-(4-((N,1,2-trimethyl-1H-benzo[d]imidazole)-5-sulfonamido)phenyl)cyclohexane-1-carboxylic acid] | 63.1 |  |
| CN[C@@H]1C[C@H](C(=O)Nc2ccc(C(F)(F)F)cc2F)[C@@H](C(=O)O)[C@H](c2ccc(N(C)S(=O)(=O)c3ccc4c(c3)nc(C)n4C)cc2)C1 (single isomer, unassigned) [Example 257] | 251 |  |
| C=CC1COC[C@@H]1c1ccc([C@H]2CCC[C@@H](C(=O)Nc3ccc(C(F)(F)F)cc3F)[C@@H]2C(=O)O)cc1 (mixture of isomers) [Example 66, 1:1 Mixture of (1R,2R,6S)-2-((2-fluoro-4-(trifluoromethyl)phenyl)carbamoyl)-6-(4-((3S)-4-vinyltetrahydrofuran-3-yl)phenyl)cyclohexane-1-carboxylic acid AND (1R,2R,6S)-2-((2-fluoro-4-(trifluoromethyl)phenyl)carbamoyl)-6-(4-((3R)-4-vinyltetrahydrofuran-3-yl)phenyl)cyclohexane-1-carboxylic acid] | 2510 |  |
| CN(c1ccc([C@H]2CCC[C@@H](COc3ccc(C(F)(F)F)cc3)[C@@H]2C(=O)O)cc1)S(=O)(=O)c1cccc([C@H]2CCCNC2)c1 (relative stereo) [Example 213, (1R,2S,6R)-2-(4-((N-methyl-3-((R*)-piperidin-3-yl)phenyl)sulfonamido)phenyl)-6-((4-(trifluoromethyl)phenoxy)methyl)cyclohexane-1-carboxylic acid, formic acid salt] |  | 7.40 |
| Cc1nc2cc(S(=O)(=O)N(C)c3ccc([C@H]4CCC[C@@H](COc5ccc(C(F)(F)F)cc5)[C@@H]4C(=O)O)cc3)cc([C@@H]3CCCNC3)c2n1C (single isomer, unassigned) [Example 209, hydrochloride] | 2000 |  |
| CCN[C@@H]1CC[C@@H](C(=O)Nc2ccc(C(C)C)cc2)[C@H](C(=O)O)[C@H]1c1ccc(N(C)S(=O)(=O)c2ccc3c(c2)nc(C)n3C)cc1 (racemic) [Example 249, rac-(1R,2S,3R,6R)-3-(ethylamino)-6-((4-isopropylphenyl)carbamoyl)-2-(4-((N,1,2-trimethyl-1H-benzo[d]imidazole)-5-sulfonamido)phenyl)cyclohexane-1-carboxylic acid] | 1.58 |  |
| Cc1nc2cc(S(=O)(=O)N(C)c3ccc([C@@H]4C[C@H]5COC[C@H]5[C@H](C(=O)Nc5ccc(C(F)(F)F)cc5F)[C@H]4C(=O)O)cc3)ccc2n1C (stereo in doubt) [Example 394, rel-(3aR,4S,5S,6R,7aR)-4-((2-fluoro-4-(trifluoromethyl)phenyl)carbamoyl)-6-(4-((N,1,2-trimethyl-1H-benzo[d]imidazole)-5-sulfonamido)phenyl)octahydroisobenzofuran-5-carboxylic acid] | 501 |  |
| O=C(O)[C@@H]1[C@@H](c2ccc(-c3ccc4nncn4n3)cc2)CCC[C@H]1C(=O)Nc1ccc(C(F)(F)F)cc1F [Example 30, (1R,2S,6R)-2-(4-([1,2,4]triazolo[4,3-b]pyridazin-6-yl)phenyl)-6-((2-fluoro-4-(trifluoromethyl)phenyl)carbamoyl)cyclohe xane-1-carboxylic acid] | 6310 |  |
| Cc1nc2cc(S(=O)(=O)Nc3ccc([C@H]4CCC[C@@H](C(=O)Nc5ccc(C(F)(F)F)cc5F)[C@@H]4C(=O)O)cc3)ccc2[nH]1 (relative stereo) [Example 258, rel-(1R,2R,6S)-2-((2-fluoro-4-(trifluoromethyl)phenyl)carbamoyl)-6-(4-((2-methyl-1H-benzo[d]imidazole)-5-sulfonamido)phenyl)cyclohexane-1-carboxylic acid] | 631 |  |
| O=C(O)[C@@H]1[C@@H](c2ccc(-c3cccnn3)cc2)CCC[C@H]1C(=O)Nc1ccc(C(F)(F)F)cc1F [Example 38, (1R,2R,6S)-2-((2-fluoro-4-(trifluoromethyl)phenyl)carbamoyl)-6-(4-(pyridazin-3-yl)phenyl)cyclohexane-1-carboxylic acid] | 1.58 |  |
| Cc1nc2cc(S(=O)(=O)N(C)c3ccc([C@H]4CCC[C@@H](C(=O)Nc5ccc(C(C)C)cc5)[C@@H]4C(=O)O)cc3)ccc2n1C (single isomer, unassigned) [Example 79] | 501 |  |
| Cc1ncccc1-c1ccc([C@H]2CCC[C@@H](C(=O)Nc3ccc(C(F)(F)F)cc3F)[C@@H]2C(=O)O)cc1 [Example 13, (1R,2R,6S)-2-((2-fluoro-4-(trifluoromethyl)phenyl)carbamoyl)-6-(4-(2-methylpyridin-3-yl)phenyl)cyclohexane-1-carboxylic acid, formic acid salt] | 63.1 |  |
| O=C(O)[C@@H]1[C@@H](c2ccc(-c3cnsc3CO)cc2)CCC[C@H]1C(=O)Nc1ccc(C(F)(F)F)cc1F [Example 51, (1R,2R,6S)-2-((2-fluoro-4-(trifluoromethyl)phenyl)carbamoyl)-6-(4-(5-(hydroxymethyl)isothiazol-4-yl)phenyl) cyclohexane-1-carboxylic acid] | 10 |  |
| COC(=O)[C@H]1C[C@H]1c1ccc([C@H]2CCC[C@@H](C(=O)Nc3ccc(C(F)(F)F)cc3F)[C@@H]2C(=O)O)cc1 (racemic) [Example 67, 1:1 Mixture of (1R,2R,6S)-2-((2-fluoro-4-(trifluoromethyl)phenyl)carbamoyl)-6-(4-((1R,2S)-2-(methoxycarbonyl)cyclopropyl)phenyl)cyclohexane-1-carboxylic acid AND (1R,2R,6S)-2-((2-fluoro-4-(trifluoromethyl)phenyl)carbamoyl)-6-(4-((1S,2S)-2-(methoxycarbonyl)cyclopropyl)phenyl)cyclohexane-1-carboxylic acid] | 2000 |  |
| Cc1nc2cc(S(=O)(=O)Nc3ccc([C@H]4CCC[C@@H](C(=O)Nc5ccc(C(F)(F)F)cc5F)[C@@H]4C(=O)O)cc3)ccc2n1C (single isomer, unassigned) [Example 223] | 158 |  |
| O=C(O)[C@@H]1[C@@H](c2ccc(C(F)(F)F)cc2)CCC[C@H]1C(=O)Nc1ccc(C(F)(F)F)cc1F (racemic) [Example 247, rac-(1R,2R,6S)-2-((2-fluoro-4-(trifluoromethyl)phenyl)carbamoyl)-6-(4-(trifluoromethyl)phenyl)cyclohexane-1-carboxylic acid] | 79.4 |  |
| Cc1nc2cc(S(=O)(=O)N(C)c3ccc([C@H]4C[C@@H](O)C[C@@H](C(=O)Nc5ccc(C(F)(F)F)cc5F)[C@H]4C(=O)O)cc3)ccc2n1C (single isomer, unassigned) [Example 142] | 2000 |  |
| O=C(O)[C@@H]1[C@@H](c2ccc([C@H]3[C@@H]4CNCC[C@@H]43)cc2)CCC[C@H]1C(=O)Nc1ccc(C(F)(F)F)cc1F (racemic) [Example 70] | 15800 |  |
| Cc1nc2cc(S(=O)(=O)N(C)c3ccc([C@H]4CCC[C@@H](C(=O)NC56CC(C)(C5)C6)[C@@H]4C(=O)O)cc3)ccc2n1C (racemic) [Example 178] | 5010 |  |
| COC(=O)N1CCc2c(cnnc2-c2ccc([C@H]3CCC[C@@H](C(=O)Nc4ccc(C(F)(F)F)cc4F)[C@@H]3C(=O)O)cc2)C1 [Example 40, (1R,2R,6S)-2-((2-fluoro-4-(trifluoromethyl)phenyl)carbamoyl)-6-(4-(6-(methoxycarbonyl)-5,6,7,8-tetrahydropyrido[3,4-d]pyridazin-1-yl)phenyl)cyclohexane-1-carboxylic acid] | 10000 |  |
| O=C(Nc1ccc(C(F)(F)F)cc1)[C@@H]1CCC[C@H](c2ccc(Br)cc2)[C@@]1(F)C(=O)O (racemic) [Example 243, rac-(1R,2S,6R)-2-(4-bromophenyl)-1-fluoro-6-((4-(trifluoromethyl)phenyl)carbamoyl)cyclohexane-1-carboxylic acid] | 5010 |  |
| Cc1nc2cc(S(=O)(=O)N(C)c3ccc([C@H]4C[C@H](N(C)C)C[C@@H](C(=O)Nc5ccc(C(F)(F)F)cc5F)[C@@H]4C(=O)O)cc3)ccc2n1C (relative stereo) [Example 253, rel-(1R,2R,4S,6S)-4-(dimethylamino)-2-((2-fluoro-4-(trifluoromethyl)phenyl)carbamoyl)-6-(4-((N,1,2-trimethyl-1H-benzo[d]imidazole)-5-sulfonamido)phenyl)cyclohexane-1-carboxylic acid] | 2 |  |
| CN(c1ccc([C@H]2CCC[C@@H](C(=O)Nc3ccc(C(F)(F)F)cc3F)[C@@H]2C(=O)O)cc1)S(=O)(=O)c1cccc(-c2nnco2)c1 [Example 105, (1R,2R,6S)-2-((2-fluoro-4-(trifluoromethyl)phenyl)carbamoyl)-6-(4-((N-methyl-3-(1,3,4-oxadiazol-2-yl)phenyl)sulfonamido)phenyl)cyclohexane-1-carboxylic acid] | 1.58 |  |
| O=C(O)[C@@H]1[C@@H](c2ccc(-c3cccc(COC4CCOCC4)c3)cc2)CCC[C@H]1C(=O)Nc1ccc(C(F)(F)F)cc1F [Example 21, (1R,2R,6S)-2-((2-fluoro-4-(trifluoromethyl)phenyl)carbamoyl)-6-(3′-(((tetrahydro-2H-pyran-4-yl)oxy)methyl)-[1,1′-biphenyl]-4-yl) cyclohexane-1-carboxylic acid] | 7940 |  |
| Cc1nc2cc(S(=O)(=O)N(C)c3ccc([C@H]4CCC[C@@H](C(=O)N[C@@H]5CCC[C@@H](C(F)(F)F)C5)[C@@H]4C(=O)O)cc3)ccc2n1C [Example 192, (1R,2R,6S)-2-(((1R,3R)-3-(trifluoromethyl)cyclohexyl)carbamoyl)-6-(4-((N,1,2-trimethyl-1H-benzo[d]imidazole)-5-sulfonamido)phenyl)cyclohexane-1-carboxylic acid] | 39800 |  |
